According to patent US11584710B2, “Compounds for treating infections” (HORITZONTS TECNOLOGICS HUNGARY KORLÁTOLT FELELOSSÉGU …, priority 2017, dated 2023):

Legend:
[1] = system: C. difficile; assay: Kirby-Bauer disk diffusion susceptibility test; assay type: cell-based; settings: for Antibiotic activity (Table VIII, zone of inhibition): 300 μg
Method: (§1) Bacterial strains, from clinical origin, were supplied by the National Center for Microbiology, Institute of Health Carlos III (Majadahonda, Madrid). They are detailed in Table 1.
(§2) Bacterial cells suspension in sterile saline was prepared from a culture of 24-72 h, depending on bacterial species, in Mueller-Hinton Agar with 5% sheep blood. Each suspension was adjusted to a fixed size inoculum of 1-5×10^8 CFU/ml with a spectrophotometer (Ferraro, MJ National Committee for Clinical Laboratory Standards. 2000).
(§3) Kirby-Bauer disk diffusion susceptibility test protocol was utilized to determine the sensitivity or resistance of pathogenic bacteria against the compounds and others antibiotics. The absence of growth around the disks is an indirect measure of the ability of this compound to inhibit an organism (Kirby, W., et al., Antibiotics Annu. 1956-1957:892). After 18 to 72 hours of incubation at 37° C., with or without CO2, under aerobic or anaerobic conditions, depending on the bacterial species, halo of growth inhibition were obtained and evaluated.
(§4) Interpretation of susceptibility and resistance was based on the presence or absence of a zone of inhibition surrounding the disk. Kirby-Bauer disk diffusion susceptibility test is a common method which uses antibiotic-impregnated wafers to test whether bacteria are affected by antibiotics. The size of the zone of inhibition depends on how effective the antibiotic is at stopping the growth of the bacterium. A stronger antibiotic will create a larger zone, because a lower concentration of the antibiotic is enough to stop growth.
(§5) All compounds were tested at 300 μg/disc.

[2] = system: K. pneumoniae; assay: Kirby-Bauer disk diffusion susceptibility test; assay type: cell-based; settings: for Antibiotic activity (Table VIII, zone of inhibition): 300 μg
Method: as §1, §2, §3, §4, §5

[3] = system: N. carnea; assay: Kirby-Bauer disk diffusion susceptibility test; assay type: cell-based; settings: for Antibiotic activity (Table VIII, zone of inhibition): 300 μg
Method: as §1, §2, §3, §4, §5

[4] = system: N. cyriacigeorgica; assay: Kirby-Bauer disk diffusion susceptibility test; assay type: cell-based; settings: for Antibiotic activity (Table VIII, zone of inhibition): 300 μg
Method: as §1, §2, §3, §4, §5

[5] = system: S. pneumoniae; assay: Kirby-Bauer disk diffusion susceptibility test; assay type: cell-based; settings: for Antibiotic activity (Table VIII, zone of inhibition): 300 μg
Method: as §1, §2, §3, §4, §5

[6] = system: S. pyogenes; assay: Kirby-Bauer disk diffusion susceptibility test; assay type: cell-based; settings: 300 μg/disc
Method: as §1, §2, §3, §4, §5

[7] = system: T. pulmonis; assay: Kirby-Bauer disk diffusion susceptibility test; assay type: cell-based; settings: for Antibiotic activity (Table VIII, zone of inhibition): 300 μg
Method: as §1, §2, §3, §4, §5

[8] = system: A. flavus; assay: Antifungal disk diffusion susceptibility test (CLSI M44); assay type: cell-based; settings: Aspergillus flavus
Method: (§6) Filamentous fungi and yeasts strains, from clinical origin, were supplied by Microbiology Service from The Princess Hospital, Madrid. They are detailed in Table IX.
(§7) Filamentous fungi and yeast cells suspensions in distilled water was prepared from a culture of 24-48 h, depending on species, in Sabouraud agar. Each suspension was adjusted to a fixed size inoculum of 1-5×10^8 CFU/ml with a spectrophotometer (Ferraro, MJ National Committee for Clinical Laboratory Standards. 2000).
(§8) Antifungal susceptibility tests were developed following the standardized methodology detailed in document CLSI: M44-4: Method for Antifungal Disk diffusion susceptibility testing of yeasts consisting of disk diffusion on agar Muller-Hinton (supplemented with 2% glucose).

[9] = system: A. fumigatus; assay: as above; assay type: cell-based; settings: Aspergillus fumigatus
Method: as §6, §7, §8

[10] = system: A. niger; assay: as above; assay type: cell-based; settings: Aspergillus niger
Method: as §6, §7, §8

[11] = system: A. terreus; assay: as above; assay type: cell-based; settings: Aspergillus terreus
Method: as §6, §7, §8

[12] = system: C. albicans; assay: as above; assay type: cell-based; settings: Candida albicans
Method: as §6, §7, §8

[13] = system: C. guillermondii; assay: as above; assay type: cell-based
Method: as §6, §7, §8

[14] = system: C. lusitaniae; assay: as above; assay type: cell-based; settings: Clavispora lusitaniae
Method: as §6, §7, §8

[15] = system: C. parapsilosis; assay: as above; assay type: cell-based; settings: Lodderomyces parapsilosis
Method: as §6, §7, §8

[16] = system: C. tropicalis; assay: as above; assay type: cell-based; settings: Candida tropicalis
Method: as §6, §7, §8

[17] = system: S. cerevisiae; assay: as above; assay type: cell-based; settings: Saccharomyces cerevisiae
Method: as §6, §7, §8

[18] = system: C. albicans; design: key: I = intermediate activity; S = susceptibility; R = Resistance; settings: C. albicans clinical strain; cited from earlier work
[19] = system: C. glabrata; design: key: I = intermediate activity; S = susceptibility; R = Resistance; settings: C. glabrata clinical strain; cited from earlier work
[20] = system: C. tropicalis; design: key: I = intermediate activity; S = susceptibility; R = Resistance; settings: C. tropicalis clinical strain; cited from earlier work
[21] = system: C. parapsilosis; design: key: I = intermediate activity; S = susceptibility; R = Resistance; settings: C. parapsilosis clinical strain; cited from earlier work
[22] = system: C. lusitaniae; design: key: I = intermediate activity; S = susceptibility; R = Resistance; settings: C. lusitaniae clinical strain; cited from earlier work
[23] = system: C. Krusei; design: key: I = intermediate activity; S = susceptibility; R = Resistance; settings: C. Krusei clinical strain; cited from earlier work
[24] = system: C. guillermondii; design: key: I = intermediate activity; S = susceptibility; R = Resistance; settings: C. guillermondii clinical strain; cited from earlier work
[25] = system: A. fumigatus; design: key: I = intermediate activity; S = susceptibility; R = Resistance; settings: A. fumigatus clinical strain; cited from earlier work
[26] = system: A. niger; design: key: I = intermediate activity; S = susceptibility; R = Resistance; settings: A. niger clinical strain; cited from earlier work
[27] = system: A. terreus; design: key: I = intermediate activity; S = susceptibility; R = Resistance; settings: A. terreus clinical strain; cited from earlier work
[28] = system: A. flavus; design: key: I = intermediate activity; S = susceptibility; R = Resistance; settings: A. flavus clinical strain; cited from earlier work
[29] = system: S. cerevisiae; design: key: I = intermediate activity; S = susceptibility; R = Resistance; settings: S. cerevisiae clinical strain; cited from earlier work
[30] = system: A. baumannii; assay: Kirby-Bauer disk diffusion susceptibility test; assay type: cell-based; settings: 300 μg
Method: as §1, §2, §3, §4, §5

[31] = system: E. cloacae; assay: Kirby-Bauer disk diffusion susceptibility test; assay type: cell-based; settings: 300 μg
Method: as §1, §2, §3, §4, §5

[32] = system: E. coli; assay: Kirby-Bauer disk diffusion susceptibility test; assay type: cell-based; settings: 300 μg
Method: as §1, §2, §3, §4, §5

[33] = system: E. faecalis; assay: Kirby-Bauer disk diffusion susceptibility test; assay type: cell-based; settings: E. foecalis; 300 μg
Method: as §1, §2, §3, §4, §5

[34] = system: E. faecium; assay: Kirby-Bauer disk diffusion susceptibility test; assay type: cell-based; settings: 300 μg
Method: as §1, §2, §3, §4, §5

[35] = system: M. abscessus; assay: Kirby-Bauer disk diffusion susceptibility test; assay type: cell-based; settings: 300 μg
Method: as §1, §2, §3, §4, §5

[36] = system: P. aeruginosa; assay: Kirby-Bauer disk diffusion susceptibility test; assay type: cell-based; settings: 300 μg
Method: as §1, §2, §3, §4, §5

[37] = system: S. epidermidis; assay: Kirby-Bauer disk diffusion susceptibility test; assay type: cell-based; settings: 300 μg
Method: as §1, §2, §3, §4, §5

SMILES | Susceptibility of the strain [18] | Susceptibility of the strain [19] | Susceptibility of the strain [20] | Susceptibility of the strain [21] | Susceptibility of the strain [22] | Susceptibility of the strain [23] | Susceptibility of the strain [24] | Susceptibility of the strain [25] | Susceptibility of the strain [26] | Susceptibility of the strain [27] | Susceptibility of the strain [28] | Susceptibility of the strain [29] | Antibiotic activity (Table VIII, zone of inhibition) [30] [mm] | Antibiotic activity (Table VIII, zone of inhibition) [1] [mm] | Antibiotic activity (Table VIII, zone of inhibition) [31] [mm] | Antibiotic activity (Table VIII, zone of inhibition) [32] [mm] | Antibiotic activity (Table VIII, zone of inhibition) [33] [mm] | Antibiotic activity (Table VIII, zone of inhibition) [34] [mm] | Antibiotic activity (Table VIII, zone of inhibition) [2] [mm] | Antibiotic activity (Table VIII, zone of inhibition) [35] [mm] | also measured
NNC(=O)C(=O)NOc1ccccc1 [MSG-196] | – | – | – | – | – | – | – | – | – | – | – | – | – | – | – | – | – | – | – | – | Activity detected (mm) ([1]; 300 μg/disc): 18 mm; Activity detected (mm) ([2]; 300 μg/disc): 13 mm; Activity detected (mm) ([3]; 300 μg/disc): 30 mm; Activity detected (mm) ([4]; 300 μg/disc): 34 mm; Activity detected (mm) ([5]; 300 μg/disc): 20 mm; Activity detected (mm) [6]: 20 mm; Activity detected (mm) ([7]; 300 μg/disc): 22 mm
CC(=O)N1CCN(c2ccc(OCC3COC(Cn4ccnc4)(c4ccc(Cl)cc4Cl)O3)cc2)CC1 (stereo not shown) [Ket, ketoconazole] | S | S | S | S | S | S | R | S | S | S | S | S | – | – | – | – | – | – | – | – | zone of inhibition at 50 µg/disc ([8]; read-out: Activity (mm)): 32 mm; zone of inhibition at 50 µg/disc ([9]; read-out: Activity (mm)): 22 mm; zone of inhibition at 50 µg/disc ([10]; read-out: Activity (mm)): 25 mm; zone of inhibition at 50 µg/disc ([11]; read-out: Activity (mm)): 26 mm; zone of inhibition at 50 µg/disc ([12]; read-out: Activity (mm)): 22 mm; zone of inhibition at 50 µg/disc ([13]; read-out: Activity (mm)): 44 mm; zone of inhibition at 50 µg/disc ([14]; read-out: Activity (mm)): 41 mm; zone of inhibition at 50 µg/disc ([15]; read-out: Activity (mm)): 42 mm; zone of inhibition at 50 µg/disc ([16]; read-out: Activity (mm)): 25 mm; zone of inhibition at 50 µg/disc ([17]; read-out: Activity (mm)): 30 mm
NNC(=O)C(=O)NNc1ccc(OC(=O)c2ccccc2)cc1 [MSG-231] | – | – | – | – | – | – | – | – | – | – | – | – | 20 | 24 | 10 | 17 | 29 | 27 | 10 | 27 | Antibiotic activity (Table VIII, zone of inhibition) [3]: 38 mm; Antibiotic activity (Table VIII, zone of inhibition) [4]: 33 mm; Antibiotic activity (Table VIII, zone of inhibition) [36]: 11 mm; Antibiotic activity (Table VIII, zone of inhibition) [37]: 33 mm; Antibiotic activity (Table VIII, zone of inhibition) [5]: 24 mm; Antibiotic activity (Table VIII, zone of inhibition) [7]: 27 mm
Clc1ccccc1C(c1ccccc1)(c1ccccc1)n1ccnc1 [Clo, clotrimazol] | S | S | S | S | S | S | R | S | S | S | S | R | – | – | – | – | – | – | – | – | zone of inhibition at 10 µg/disc ([8]; A. flavus, 10 μg control): 32 mm; zone of inhibition at 10 µg/disc ([9]; A. fumigatus, 10 μg control): 22 mm; zone of inhibition at 10 µg/disc ([10]; A. niger, 10 μg control): 25 mm; zone of inhibition at 10 µg/disc ([11]; A. terreus, 10 μg control): 26 mm; zone of inhibition at 10 µg/disc ([12]; C. albicans, 10 μg control): 15 mm; zone of inhibition at 10 µg/disc ([13]; C. guillermondii, 10 μg control): 44 mm; zone of inhibition at 10 µg/disc ([14]; C. lusitaniae, 10 μg control): 41 mm; zone of inhibition at 10 µg/disc ([15]; C. parapsilosis, 10 μg control): 42 mm; zone of inhibition at 10 µg/disc ([16]; C. tropicalis, 10 μg control): 25 mm; zone of inhibition at 10 µg/disc ([17]; S. cerevisiae, 10 μg control): 30 mm
COc1ccccc1NNC(=O)C(=O)NN [MSG-235] | – | – | – | – | – | – | – | – | – | – | – | – | 15 | 20 | 11 | 14 | 25 | 22 | 12 | 23 | Antibiotic activity (Table VIII, zone of inhibition) [3]: 34 mm; Antibiotic activity (Table VIII, zone of inhibition) [4]: 29 mm; Antibiotic activity (Table VIII, zone of inhibition) [36]: 11 mm; Antibiotic activity (Table VIII, zone of inhibition) [37]: 27 mm; Antibiotic activity (Table VIII, zone of inhibition) [5]: 21 mm; Antibiotic activity (Table VIII, zone of inhibition) [7]: 24 mm
